Patent US20100286147A1 (priority 2008, published 2010)

How the values were obtained:
Assay type in all cases: in vivo
Plasmopara viticola = assay: Test A: grape downy mildew, grape seedlings sprayed after inoculation; details: sprayed 24 h after inoculation, visual rating, 100 = 100% disease control, 0 = no control relative to controls, test concentration not given
Description: General protocol for preparing test suspensions for Test A-C: The test compounds were first dissolved in acetone in an amount equal to 3% of the final volume and then suspended at the desired concentration (in ppm) in acetone and purified water (50/50 mix by volume) containing 250 ppm of the surfactant Trem® 014 (polyhydric alcohol esters). The resulting test suspensions were then used in Tests A-C. Spraying a 40 ppm test suspension to the point of run-off on the test plants was equivalent to a rate of 100 g/ha.
Grape seedlings were inoculated with a spore suspension of Plasmopara viticola (the causal agent of grape downy mildew) and incubated in a saturated atmosphere at 20° C. for 24 h. After a short drying period, the test suspension was sprayed to the point of run-off on the grape seedlings, which were then moved to a growth chamber at 20° C. for 5 days, after which time the grape seedling were placed back into a saturated atmosphere at 20° C. for 24 h. Upon removal, visual disease ratings were made.
Results for Tests A-C are given in Table A. In the table, a rating of 100 indicates 100% disease control and a rating of 0 indicates no disease control (relative to the controls).

Phytophthora infestans [1] = details: tomato seedlings, sprayed the day before inoculation; visual rating, 100 = 100% disease control, 0 = no control relative to controls; test concentration not given
Phytophthora infestans [2] = details: tomato seedlings, sprayed 17 h after inoculation; visual rating, 100 = 100% disease control, 0 = no control relative to controls; test concentration not given

SMILES	Percent Disease Control Test A (Plasmopara viticola) [%]	Percent Disease Control Test B (Phytophthora infestans [1]) [%]	Percent Disease Control Test C (Phytophthora infestans [2]) [%]
Cc1cc(C(F)(F)F)nn1CC(=O)N1CCC(c2nc(C3=NOC(c4ccccc4Oc4ccccc4)C3)cs2)CC1 (stereo not drawn) [Compound 3]	97	100	93
Cc1cc(C(F)(F)F)nn1CC(=O)N1CCC(c2nc(C3=NOC(c4ccccc4N4CCN(C)CC4)C3)cs2)CC1 (stereo not drawn) [Compound 10]	10	100	93
Cc1cc(C(F)(F)F)nn1CC(=O)N1CCC(c2nc(C3=NOC(n4ccc(-c5ccccc5)n4)C3)cs2)CC1 (stereo not drawn) [Compound 13]	56	100	93
Cc1cccc(C2CC(c3csc(C4CCN(C(=O)Cn5nc(C(F)(F)F)cc5C)CC4)n3)=NO2)c1-n1c(O)nn(C)c1=O (stereo not drawn) [Compound 8]	0	100	53
Cc1cc(C(F)(F)F)nn1CC(=O)N1CCC(c2nc(C3=NOC(c4ccccc4N4CCOCC4)C3)cs2)CC1 (stereo not drawn) [Compound 6]	87	100	99
Cc1ccc(C)c(NC(=O)N2CCC(c3nc(C4=NOC(c5ccccc5-c5ccccc5)C4)cs3)CC2)c1 (stereo not drawn) [Compound 17, 4-[4-(5-[1,1′-biphenyl]-2-yl-4,5-dihydro-3-isoxazolyl)-2-thiazolyl]-N-(2,5-dimethylphenyl)-1-piperidinecarboxamide]	98	100	99
Cc1ccc(C)c(NC(=O)N2CCC(c3nc(C4=NOC(c5ccccc5Oc5ccccc5)C4)cs3)CC2)c1 (stereo not drawn) [Compound 18]	67	93	58
Cc1cc(C(F)(F)F)nn1CC(=O)N1CCC(c2nc(C3=NOC(c4c(F)cccc4-n4cncn4)C3)cs2)CC1 (stereo not drawn) [Compound 11]	99	100	99
Cc1cc(C(F)(F)F)nn1CC(=O)N1CCC(c2nc(C3=NOC(c4ccccc4Cc4ccccc4)C3)cs2)CC1 (stereo not drawn) [Compound 7]	73	99	86
Cc1cc(C(F)(F)F)nn1CC(=O)N1CCC(c2nc(C3=NOC(c4cccc(-n5cncn5)c4)C3)cs2)CC1 (stereo not drawn) [Compound 1, 1-[4-[4-[4,5-dihydro-5-[3-(1H-1,2,4-triazol-1-yl)phenyl]-3-isoxazolyl]-2-thiazolyl]-1-piperidinyl]-2-[5-methyl-3-(trifluoromethyl)-1H-pyrazol-1-yl]ethanone]	91	100	99
COc1nn(C)c(=O)n1-c1c(C)cccc1C1CC(c2csc(C3CCN(C(=O)Cn4nc(C(F)(F)F)cc4C)CC3)n2)=NO1 (stereo not drawn) [Compound 12]	31	100	99
Cc1ccc(C)c(NC(=O)N2CCC(c3nc(C4=NOC(c5ccccc5-n5cncn5)C4)cs3)CC2)c1 (stereo not drawn) [Compound 19]	99	100	99
Cc1cc(C(F)(F)F)nn1CC(=O)N1CCC(c2nc(C3=NOC(N4C(=O)NC(C)(c5ccccc5)C4=O)C3)cs2)CC1 (stereo not drawn) [Compound 15]	92	100	97
Cc1cc(C(F)(F)F)nn1CC(=O)N1CCC(c2nc(C3=NOC(c4ccccc4N4CCCCC4)C3)cs2)CC1 (stereo not drawn) [Compound 4]	58	99	83
Cc1cc(C(F)(F)F)nn1CC(=O)N1CCC(c2nc(C3=NOC(c4ccccc4-c4ccccc4)C3)cs2)CC1 (stereo not drawn) [Compound 16]	99	100	99
Cc1cc(C(F)(F)F)nn1CC(=O)N1CCC(c2nc(C3=NOC(c4ccc(-c5ccccc5)cc4)C3)cs2)CC1 (stereo not drawn) [Compound 2]	76	90	32
Cc1cc(C(F)(F)F)nn1CC(=O)N1CCC(c2nc(C3=NOC(c4ccccc4C(=O)c4ccccc4)C3)cs2)CC1 (stereo not drawn) [Compound 9]	0	100	17
Cc1cc(C(F)(F)F)nn1CC(=O)N1CCC(c2nc(C3=NOC(c4ccccc4-n4cncn4)C3)cs2)CC1 (stereo not drawn) [Compound 5]	98	100	99
